In brackets after ≈: the same amount, converted by molar mass. Read-outs that look alike come from different tables or passages of the source. Bounds are passed on as bounds.

Assay [1] relates to carbapenem-resistant K. pneumoniae (CRKP) strains. Put plainly: Broth microdilution MIC (EUCAST). The assay is classed as cell-based. As to conditions: Klebsiella pneumoniae. How it is done: The minimum inhibitory concentrations (MICs) to polymyxin B and meropenem of the collected CRKP strains were determined by broth microdilution according to the European Committee on Antimicrobial Susceptibility Testing (EUCAST) guidelines and interpreted according to EUCAST breakpoints of colistin (Breakpoint tables for interpretation of MICs and zone diameters, Version 11.0); Escherichia coli ATCC 25922 was used as the control strain. Polymerase chain reaction (PCR) was employed to determine the presence of resistance genes (KPC, NDM, IMP, OXA, VIM). The primers were the same as in a published protocol and the sample process procedures were adapted a little bit ([Poirel et al., 2011]). To be brief, a single colony of the bacteria were picked and resuspended in ultra-pure water, and total DNA was extracted by heating bacterial suspension at 100°C for 10 min to lysis and release DNA. The suspension was centrifuged for total DNA which was dissolved in supernatant. Then 2 µl total DNA, 1 µl forward and 1 µl reverse primers (10 µM) for each targeted gene, 12.5 µl 2 × Hieff® Robust PCR Master Mix (Yeasen, Shanghai, China) and ultra-pure water were mixed into a 25 µl reaction mixture. […] Finally amplified DNA fragments were analyzed by electrophoresis in a 1% agarose gel. […]
In general terms: In broth dilution the organism is exposed to a series of concentrations in liquid medium.

In assay [2] the test system is carbapenem-resistant K. pneumoniae. As to conditions: retrospective, 2021, cited from earlier work. From the text: In the present study, microbiological eradication was achieved by the third day of treatment in all eight patients assessed and blood culture remained negative until they had completed the study or withdrew. Clinical improvement occurred in 6 of 8 (75%) of th ...

Assay [3] deals with A. baumannii. The note with it: cited from earlier work. How it is done: (§1) Monte Carlo simulations were conducted for the probability of target attainment (PTA) analysis to guide the selection of optimal dosage regimens. Different dosage regimens were simulated by the PPK model and AUCss,24h were calculated. […] The maximal reductions in colony f ... || FIGURE 4 Probability of target attainment for different dosage regimens of polymyxin B against common carbapenem-resistant organisms according to PK/PD simulations. (A) Loading dose for three bacterial species. […] In preclinical studies, the fAUC/MIC required for various magnitudes of bacterial killing varied among bacterial strains and infection sites. […] Against P. aeruginosa and A. b ... || (+ 2 further places)

The test system of assay [4] is P. aeruginosa. The note with it: cited from earlier work. How it is done:
as §1

The term MIC denotes the least concentration at which growth counts as inhibited. On to `C[C@@H](O)[C@H]1C(=O)N2C(C(=O)O)=C(S[C@@H]3CN[C@H](C(=O)N(C)C)C3)[C@H](C)[C@H]12` [meropenem], for which the MIC in assay [1] (9 strains (all except strain No. 2–2), read-out: meropenem MIC) is more than 64 µg/mL; in assay [1] (strain No. 2–2, read-out: meropenem MIC), 4 µg/mL (≈ 10.4 µM).
For the compound `NCC[C@H](O)C(=O)N[C@@H]1C[C@H](N)[C@@H](O[C@H]2O[C@H](CN)[C@@H](O)[C@H](O)[C@H]2O)[C@H](O)[C@H]1O[C@H]1O[C@H](CO)[C@@H](O)[C@H](N)[C@H]1O` [amikacin], the 30-day mortality in assay [2] (amikacin and its combinations for CRKP infection, ref Rodrigues et al.) is on record as 34.5%.
As for ceftazidime-avibactam, in assay [2] (CRKP BSI, alone or combined with other antibiotics, ref Tumbarello et al.), the 30-day mortality entry is recorded as “around 25%”.
Turning to colistin, the fAUC24h/MIC target in assay [3] (2-log10 reduction against A. baumannii, murine thigh infection, ref Cheah et al., 2015) is 17.6; in assay [4] (2-log10 reduction against P. aeruginosa, murine thigh infection, ref Cheah et al., 2015), 13.5. Also, the fAUC/MIC target in assay [3] (2 log10 kill, mouse thigh infection, A. baumannii, ref Dudhani et al., 2010a, 2010b) is listed as approximately 17; in assay [4] (2 log10 kill, mouse thigh infection, P. aeruginosa, ref Dudhani et al., 2010a, 2010b), approximately 17.

Values taken from PMC9800617, “Pharmacokinetics/pharmacodynamics of polymyxin B in patients with bloodstream infection caused by carbapenem-resistant Klebsiella pneumoniae” (Frontiers in Pharmacology, 2022).
